In US10765114B2, “4-amino-6-(pyridyl and 2-substitutedphenyl)-picolinates and 6-amino-2-(pyridyl and 2-substitutedphenyl)-pyrimidine-4-carboxylates and their use as herbicides” (Dow AgroSciences LLC, priority 2013, dated 2020):

How the values were obtained:
Assay in all cases: Postemergence Herbicidal Activity in Direct Seeded Rice
Assay type in all cases: in vivo
[1] = tested on: BRAPP: broadleaf signalgrass, Brachiaria platyphylla; conditions: for Visual Growth Reduction (%) 21 Days After Application, BRAPP: postemergence, direct seeded rice; for GR50, BRAPP: Growth reduction of 50% of plant growth; for GR50, BRAPP / GR80, BRAPP: probit analysis; for GR80, BRAPP: Growth reduction of 80% of plant growth
Excerpt: (§1) Seeds or nutlets of the desired test plant species were planted in a soil matrix prepared by mixing a loam soil (43 percent silt, 19 percent clay, and 38 percent sand, with a pH of about 8.1 and an organic matter content of about 1.5 percent) and river sand in an 80 to 20 ratio. The soil matrix was contained in plastic pots with a surface area of 139.7 cm^2. When required to ensure good germination and healthy plants, a fungicide treatment and/or other chemical or physical treatment was applied. The plants were grown for 10-17 days in a greenhouse with an approximate 14-h photoperiod which was maintained at about 29° C. during the day and 26° C. during the night. Nutrients and water were added on a regular basis and supplemental lighting was provided with overhead metal halide 1000-Watt lamps as necessary. The plants were employed for testing when they reached the second or third true leaf stage.
(§2) A weighed amount, determined by the highest rate to be tested, of each test compound was placed in 25 mL glass vials and dissolved in a volume of 97:3 v/v acetone-DMSO to obtain 12× stock solutions. […] The concentrated stock solutions were added to the spray solutions so that the final acetone and DMSO concentrations were 16.2% and 0.5%, respectively. Spray solutions were diluted to the appropriate final concentrations with the addition of 10 mL of an aqueous mixture of 1.5% (v/v) Agri-dex crop oil concentrate. The final spray solutions contained 1.25% (v/v) Agri-dex crop oil concentrate. Compound requirements are based upon a 12 mL application volume at a rate of 187 L/ha. Formulated compounds were applied to the plant material with an overhead Mandel track sprayer equipped with 8002E nozzles calibrated to deliver 187 L/ha over an application area of 0.503 square meters (m^2) at a spray height of 18 inches (43 cm) above average plant canopy height. Control plants were sprayed in the same manner with the solvent blank.
(§3) The treated plants and control plants were placed in a greenhouse as described above and watered by sub-irrigation to prevent wash-off of the test compounds. After 20-22 days, the condition of the test plants, compared with that of the untreated plants, was determined visually and scored on a scale of 0 to 100 percent where 0 corresponds to no injury and 100 corresponds to complete kill and presented as indicated in Table A.
(§4) By applying the well-accepted probit analysis as described by J. Berkson in Journal of the American Statistical Society, 48, 565 (1953) and by D. Finney in “Probit Analysis” Cambridge University Press (1952), herbicidal injury of a specific compound at various rates can be used to calculate GR20, GR50, GR80 and GR90 values, which are defined as growth reduction factors that correspond to the effective dose of herbicide required to provide plant growth reduction (GR) of 20 percent, 50 percent, 80 percent and 90 percent, respectively. Probit analysis was applied to data collected from multiple dose rates of individual compounds utilizing the procedures explained in the following examples. The analysis of those dose rates is captured in the following tables

[2] = tested on: CYPSS: sedge including small-flower flatsedge (Cyperus difformis), yellow nutsedge (Cyperus esculentus), rice flatsedge (Cyperus iria); conditions: for Visual Growth Reduction (%) 21 Days After Application, CYPSS: postemergence, direct seeded rice; for GR50, CYPSS: Growth reduction of 50% of plant growth; for GR50, CYPSS / GR80, CYPSS: probit analysis; for GR80, CYPSS: Growth reduction of 80% of plant growth
Excerpt: as §1, §2, §3, §4

[3] = tested on: ECHSS: including barnyardgrass, (Echinochloa crus-galli), junglerice, (Echinochloa colonum); conditions: for Visual Growth Reduction (%) 21 Days After Application, ECHSS: postemergence, direct seeded rice; for GR50, ECHSS: Growth reduction of 50% of plant growth; for GR50, ECHSS / GR80, ECHSS: probit analysis; for GR80, ECHSS: Growth reduction of 80% of plant growth
Excerpt: as §1, §2, §3, §4

[4] = tested on: LEFSS: sprangletop including Chinese sprangletop (Leptochloa chinensis), green sprangletop (Leptochloa dubia); conditions: for Visual Growth Reduction (%) 21 Days After Application, LEFSS: postemergence, direct seeded rice; for GR50, LEFSS: Growth reduction of 50% of plant growth; for GR50, LEFSS / GR80, LEFSS: probit analysis; for GR80, LEFSS: Growth reduction of 80% of plant growth
Excerpt: as §1, §2, §3, §4

[5] = tested on: ORYSS: Oryza sativa; conditions: for Visual Growth Reduction (%) 21 Days After Application, ORYSS: postemergence, direct seeded rice; for GR20, ORYSS: Growth reduction of 20% of plant growth, probit analysis
Excerpt: as §1, §2, §3, §4

[6] = tested on: SCPJU: Japanese bulrush, Schoenoplectus juncoides; conditions: for Visual Growth Reduction (%) 21 Days After Application, SCPJU: postemergence, direct seeded rice; for GR50, SCPJU: Growth reduction of 50% of plant growth; for GR50, SCPJU / GR80, SCPJU: probit analysis; for GR80, SCPJU: Growth reduction of 80% of plant growth
Excerpt: as §1, §2, §3, §4

[7] = tested on: SEBEX: hemp sesbania, Sesbania exaltata; conditions: for Visual Growth Reduction (%) 21 Days After Application, SEBEX: postemergence, direct seeded rice; for GR50, SEBEX: Growth reduction of 50% of plant growth; for GR50, SEBEX / GR80, SEBEX: probit analysis; for GR80, SEBEX: Growth reduction of 80% of plant growth
Excerpt: as §1, §2, §3, §4

Compound | Visual Growth Reduction (%) 21 Days After Application, BRAPP ([1]; 35 g ai/ha) | Visual Growth Reduction (%) 21 Days After Application, BRAPP ([1]; 70 g ai/ha) | GR50, BRAPP [1] | GR80, BRAPP [1] | Visual Growth Reduction (%) 21 Days After Application, CYPSS ([2]; 35 g ai/ha) | Visual Growth Reduction (%) 21 Days After Application, CYPSS ([2]; 70 g ai/ha) | GR50, CYPSS [2] | GR80, CYPSS [2] | Visual Growth Reduction (%) 21 Days After Application, ECHSS ([3]; 35 g ai/ha) | Visual Growth Reduction (%) 21 Days After Application, ECHSS ([3]; 70 g ai/ha) | GR50, ECHSS [3] | GR80, ECHSS [3] | Visual Growth Reduction (%) 21 Days After Application, LEFSS ([4]; 35 g ai/ha) | Visual Growth Reduction (%) 21 Days After Application, LEFSS ([4]; 70 g ai/ha) | GR50, LEFSS [4] | GR80, LEFSS [4] | Visual Growth Reduction (%) 21 Days After Application, ORYSS ([5]; 35 g ai/ha) | Visual Growth Reduction (%) 21 Days After Application, ORYSS ([5]; 70 g ai/ha) | GR20, ORYSS [5] | GR50, SCPJU [6] | also measured
COC(=O)c1nc(-c2ccc(C(F)(F)F)nc2)c(Cl)c(N)c1Cl [Compound 83] | A (95-100) | A (95-100) | 6 g ai/ha | 16 g ai/ha | A (95-100) | A (95-100) | 2 g ai/ha | 3 g ai/ha | A (95-100) | A (95-100) | 3 g ai/ha | 9 g ai/ha | B (85-94) | D (60-74) | 27 g ai/ha | 53 g ai/ha | E (45-59) | F (30-44) | 23 g ai/ha | <17.5 g ai/ha | Visual Growth Reduction (%) 21 Days After Application, SCPJU ([6]; 35 g ai/ha): A (95-100); Visual Growth Reduction (%) 21 Days After Application, SCPJU ([6]; 70 g ai/ha): A (95-100); GR80, SCPJU [6]: <17.5 g ai/ha; Visual Growth Reduction (%) 21 Days After Application, SEBEX ([7]; 35 g ai/ha): A (95-100); Visual Growth Reduction (%) 21 Days After Application, SEBEX ([7]; 70 g ai/ha): A (95-100); GR50, SEBEX [7]: 2 g ai/ha; GR80, SEBEX [7]: 5 g ai/ha
COC(=O)c1nc(-c2ccc(C(F)(F)F)nc2)c(F)c(N)c1Cl [Compound 59, methyl 4-amino-5-chloro-3-fluoro-6′-(trifluoromethyl)-[2,3′-bipyridine]-6-carboxylate] | B (85-94) | B (85-94) | 3 g ai/ha | 16 g ai/ha | A (95-100) | A (95-100) | 2 g ai/ha | 3 g ai/ha | B (85-94) | B (85-94) | 3 g ai/ha | 15 g ai/ha | D (60-74) | B (85-94) | 27 g ai/ha | 48 g ai/ha | E (45-59) | E (45-59) | 18 g ai/ha | <17.5 g ai/ha | Visual Growth Reduction (%) 21 Days After Application, SCPJU ([6]; 35 g ai/ha): A (95-100); Visual Growth Reduction (%) 21 Days After Application, SCPJU ([6]; 70 g ai/ha): A (95-100); GR80, SCPJU [6]: <17.5 g ai/ha; Visual Growth Reduction (%) 21 Days After Application, SEBEX ([7]; 35 g ai/ha): A (95-100); Visual Growth Reduction (%) 21 Days After Application, SEBEX ([7]; 70 g ai/ha): A (95-100); GR50, SEBEX [7]: 1 g ai/ha; GR80, SEBEX [7]: 1 g ai/ha
Nc1c(Cl)c(C(=O)O)nc(-c2ccc(C(F)(F)F)nc2)c1Cl [Compound 33] | A (95-100) | A (95-100) | 3 g ai/ha | 11 g ai/ha | A (95-100) | A (95-100) | 4 g ai/ha | 7 g ai/ha | C (75-84) | A (95-100) | 1 g ai/ha | 1 g ai/ha | E (45-59) | C (75-84) | 30 g ai/ha | 77 g ai/ha | D (60-74) | C (75-84) | 8 g ai/ha | <17.5 g ai/ha | Visual Growth Reduction (%) 21 Days After Application, SCPJU ([6]; 35 g ai/ha): A (95-100); Visual Growth Reduction (%) 21 Days After Application, SCPJU ([6]; 70 g ai/ha): A (95-100); GR80, SCPJU [6]: <17.5 g ai/ha; Visual Growth Reduction (%) 21 Days After Application, SEBEX ([7]; 35 g ai/ha): A (95-100); Visual Growth Reduction (%) 21 Days After Application, SEBEX ([7]; 70 g ai/ha): A (95-100); GR50, SEBEX [7]: 1 g ai/ha; GR80, SEBEX [7]: 1 g ai/ha
COC(=O)c1nc(-c2ccc(Cl)nc2F)c(F)c(N)c1Cl [Compound 45] | G (0-29) | G (0-29) | >140 g ai/ha | >140 g ai/ha | B (85-94) | A (95-100) | 3 g ai/ha | 7 g ai/ha | F (30-44) | B (85-94) | 16 g ai/ha | >140 g ai/ha | G (0-29) | D (60-74) | >140 g ai/ha | >140 g ai/ha | G (0-29) | G (0-29) | >140 g ai/ha | 1 g ai/ha | GR80, SCPJU [6]: 1 g ai/ha; Visual Growth Reduction (%) 21 Days After Application, SEBEX ([7]; 35 g ai/ha): A (95-100); Visual Growth Reduction (%) 21 Days After Application, SEBEX ([7]; 70 g ai/ha): A (95-100); GR50, SEBEX [7]: 1 g ai/ha; GR80, SEBEX [7]: 2 g ai/ha
COC(=O)c1nc(-c2ccc(C(F)(F)F)nc2)c(C)c(N)c1Cl [Compound 32] | B (85-94) | B (85-94) | 14 g ai/ha | 35 g ai/ha | A (95-100) | A (95-100) | 1 g ai/ha | 2 g ai/ha | B (85-94) | A (95-100) | 21 g ai/ha | 35 g ai/ha | F (30-44) | E (45-59) | 59 g ai/ha | 133 g ai/ha | G (0-29) | F (30-44) | 36 g ai/ha | <17.5 g ai/ha | Visual Growth Reduction (%) 21 Days After Application, SCPJU ([6]; 35 g ai/ha): A (95-100); Visual Growth Reduction (%) 21 Days After Application, SCPJU ([6]; 70 g ai/ha): A (95-100); GR80, SCPJU [6]: <17.5 g ai/ha; Visual Growth Reduction (%) 21 Days After Application, SEBEX ([7]; 35 g ai/ha): A (95-100); Visual Growth Reduction (%) 21 Days After Application, SEBEX ([7]; 70 g ai/ha): A (95-100); GR50, SEBEX [7]: 3 g ai/ha; GR80, SEBEX [7]: 9 g ai/ha
